# Where two headings read alike, the source gives them in different places.
# What was measured:
# DLD1-WRN-KO cells = experiment: Proliferation assay DLD1-WRN-KO (CellTiterGlo, 96 hours; off-target effects); settings: read-out: Proliferation Assay DLD1-WRN-KO (GI50)
# WRN helicase = WRN helicase (Homo sapiens (Human), UniProt Q14191); experiment: In vitro enzymatic activity assay on WRN helicase (DNA dependent ATPase assay, ADP-Glo); type: biochemical; settings: geometric means of at least 2 determinations; read-out: WRN ATPase Activity (IC50)
# Summary of the method: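 The WRN helicase core (aa N517-P1238), 10 nM, hydrolysed 300 µM ATP in the presence of 0.2 nM FLAP26 DNA (Tris pH 7.5, 2 mM MgCl2, 50 mM NaCl) for 30 min at room temperature. ADP formed was quantified by ADP-Glo luminescence.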
# SW48 cells = experiment: Proliferation assay SW48 (CellTiterGlo, 96 hours)
# Experimental: The WRN-knockdown insensitive colon carcinoma cell line DLD-1 (RRID: CVCL_0248) was obtained from the Korean Cell Line Bank (KCLB), and used to generate a derivative in which the endogenous WRN gene copies were knocked out by CRISPR-mediated editing using standard CRISPR methods. The resulting cell line, DLD1-WRN—KO, was used to assess potential off-target compound effects.
# All cells were maintained at 37° C. in a humidified 5% CO2 incubator.
# For data analysis, the assay background signal that was determined in wells containing medium, but no cells, was subtracted from all other data points prior to further calculations. The extent of growth inhibition and potential cell kill was assessed by comparing the ATP levels (measured using CellTiterGlo, Promega) in compound-treated cells with those present at the time of compound addition. […] 100%, 0% and −100% signify absence of growth inhibition, growth stasis, and complete cell kill, respectively. Compound concentrations leading to half-maximal growth inhibition (G150) and residual cell viability at the highest tested compound concentration (Data (cmax), expressed in percent) were routinely calculated. Data analysis can also be carried out using commercially available software designed to derive IC50 values using 4-parameter fits (e.g. GraphPad Prism, XL fit). The reported GI50 values are the geometrical means of at least 2 independent replicates.
# [1] = Homo sapiens, SW48, read-out: Proliferation Assay SW48 (GI50)
# [2] = DLD1-WRN-KO cell line, geometric means of at least 2 determinations
# [3] = read-out: Proliferation Assay SW48 (GI50), SW48 cell line, geometric means of at least 2 determinations
# Chain of WRN helicase (Q14191 517-1238): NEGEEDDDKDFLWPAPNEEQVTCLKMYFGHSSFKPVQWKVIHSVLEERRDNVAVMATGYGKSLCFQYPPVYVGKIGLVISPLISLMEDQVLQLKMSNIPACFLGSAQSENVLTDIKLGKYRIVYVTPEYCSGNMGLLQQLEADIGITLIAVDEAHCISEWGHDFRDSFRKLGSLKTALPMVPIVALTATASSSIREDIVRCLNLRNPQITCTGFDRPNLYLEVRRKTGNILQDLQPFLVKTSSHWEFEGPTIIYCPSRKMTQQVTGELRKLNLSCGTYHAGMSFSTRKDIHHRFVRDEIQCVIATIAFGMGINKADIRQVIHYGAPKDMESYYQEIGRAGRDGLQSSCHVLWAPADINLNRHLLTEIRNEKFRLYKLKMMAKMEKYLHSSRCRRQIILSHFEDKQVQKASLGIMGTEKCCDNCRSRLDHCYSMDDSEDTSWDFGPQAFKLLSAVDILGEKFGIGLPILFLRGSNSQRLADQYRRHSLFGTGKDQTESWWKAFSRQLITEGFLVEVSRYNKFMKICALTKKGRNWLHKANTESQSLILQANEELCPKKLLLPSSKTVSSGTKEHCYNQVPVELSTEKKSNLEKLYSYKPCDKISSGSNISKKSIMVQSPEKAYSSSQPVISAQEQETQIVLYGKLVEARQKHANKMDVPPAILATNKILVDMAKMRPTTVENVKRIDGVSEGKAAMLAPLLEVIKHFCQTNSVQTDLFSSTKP
smiles,measurement,setting,value
"CCc1c(N2CCN(C(=O)c3ncccc3O)CC2)c(=O)n2nc(N3CCC[C@@H](F)C3)nc2n1CC(=O)Nc1ccc(C(F)(F)F)nc1Cl [Example 16a, (R)—N-(2-chloro-6-(trifluoromethyl)pyridin-3-yl)-2-(5-ethyl-2-(3-fluoropiperidin-1-yl)-6-(4-(3-hydroxypicolinoyl)piperazin-1-yl)-7-oxo-[1,2,4]triazolo[1,5-a]pyrimidin-4(7H)-yl)acetamide]",GI50,DLD1-WRN-KO cells; Homo sapiens,> 10 µM
same,IC50,WRN helicase,0.19 µM
same,GI50,SW48 cells; [1],0.34 µM
"CCc1c(N2CCN(C(=O)c3ncccc3O)CC2)c(=O)n2nc(C3=CCOCC3)nc2n1CC(=O)Nc1ccc(C(F)(F)F)nc1C [Example 35, 2-(2-(3,6-dihydro-2H-pyran-4-yl)-5-ethyl-6-(4-(3-hydroxypicolinoyl)piperazin-1-yl)-7-oxo-[1,2,4]triazolo[1,5-a]pyrimidin-4(7H)-yl)-N-(2-methyl-6-(trifluoromethyl)pyridin-3-yl)acetamide]",GI50,DLD1-WRN-KO cells; Homo sapiens,> 10 µM
same,IC50,WRN helicase,0.19 µM
same,GI50,SW48 cells; [1],0.4 µM
"CCc1c(N2CCN(C(=O)c3ncccc3O)CC2)c(=O)n2nc(N3CCCC(F)C3)nc2n1CC(=O)Nc1cc(Cl)c(C(F)(F)F)cc1C (racemic) [Example 13, rac-N-(5-chloro-2-methyl-4-(trifluoromethyl)phenyl)-2-(5-ethyl-2-(3-fluoropiperidin-1-yl)-6-(4-(3-hydroxypicolinoyl)piperazin-1-yl)-7-oxo-[1,2,4]triazolo[1,5-a]pyrimidin-4(7H)-yl)acetamide]",GI50,DLD1-WRN-KO cells; Homo sapiens,5.2 µM
same,IC50,WRN helicase,0.03 µM
same,GI50,SW48 cells; [1],0.16 µM
"CCc1c(N2CCN(C(=O)c3ncccc3O)CC2)c(=O)n2nc(N3CCC[C@@H](F)C3)nc2n1CC(=O)Nc1ccc(C(F)(F)F)cc1C [Example 14a, (R)-2-(5-ethyl-2-(3-fluoropiperidin-1-yl)-6-(4-(3-hydroxypicolinoyl)piperazin-1-yl)-7-oxo-[1,2,4]triazolo[1,5-a]pyrimidin-4(7H)-yl)-N-(2-methyl-4-(trifluoromethyl)phenyl)acetamide]",GI50,DLD1-WRN-KO cells; Homo sapiens,> 10 µM
same,IC50,WRN helicase,0.08 µM
same,GI50,SW48 cells; [1],0.37 µM
"CCc1c(N2CCN(C(=O)c3nccc(Cl)c3O)CC2)c(=O)n2nc(C3=CCOCC3)nc2n1CC(=O)Nc1ccc(C(F)(F)F)cc1Cl [Example 39, 2-(6-(4-(4-chloro-3-hydroxypicolinoyl)piperazin-1-yl)-2-(3,6-dihydro-2H-pyran-4-yl)-5-ethyl-7-oxo-[1,2,4]triazolo[1,5-a]pyrimidin-4(7H)-yl)-N-(2-chloro-4-(trifluoromethyl)phenyl)acetamide]",GI50,DLD1-WRN-KO cells; Homo sapiens,> 10 µM
same,IC50,WRN helicase,0.04 µM
same,GI50,SW48 cells; [1],0.05 µM
"CCc1c(N2CCN(C(=O)c3nccc(Cl)c3O)CC2)c(=O)n2nc(C3=CCOCC3)nc2n1CC(=O)Nc1ccc(C(F)(F)F)c(F)c1C [Example 37, 2-(6-(4-(4-chloro-3-hydroxypicolinoyl)piperazin-1-yl)-2-(3,6-dihydro-2H-pyran-4-yl)-5-ethyl-7-oxo-[1,2,4]triazolo[1,5-a]pyrimidin-4(7H)-yl)-N-(3-fluoro-2-methyl-4-(trifluoromethyl)phenyl)acetamide]",GI50,DLD1-WRN-KO cells; Homo sapiens,> 10 µM
same,IC50,WRN helicase,0.02 µM
same,GI50,SW48 cells; [1],0.03 µM
"CCc1c(N2CCN(C(=O)c3ncccc3O)CC2)c(=O)n2nc(C3=CCOCC3)nc2n1CC(=O)Nc1ccc(C(F)(F)F)c(F)c1C [Example 38, 2-(2-(3,6-dihydro-2H-pyran-4-yl)-5-ethyl-6-(4-(3-hydroxypicolinoyl)piperazin-1-yl)-7-oxo-[1,2,4]triazolo[1,5-a]pyrimidin-4(7H)-yl)-N-(3-fluoro-2-methyl-4-(trifluoromethyl)phenyl)acetamide]",GI50,DLD1-WRN-KO cells; Homo sapiens,> 10 µM
same,IC50,WRN helicase,0.04 µM
same,GI50,SW48 cells; [1],0.05 µM
"CCc1c(N2CCN(C(=O)c3ncccc3O)CC2)c(=O)n2nc(N3CCCC(F)C3)nc2n1CC(=O)Nc1ccc(C(F)(F)F)cc1Cl (racemic) [Example 15, rac-N-(2-chloro-4-(trifluoromethyl)phenyl)-2-(5-ethyl-2-(3-fluoropiperidin-1-yl)-6-(4-(3-hydroxypicolinoyl)piperazin-1-yl)-7-oxo-[1,2,4]triazolo[1,5-a]pyrimidin-4(7H)-yl)acetamide]",GI50,DLD1-WRN-KO cells; Homo sapiens,> 10 µM
same,IC50,WRN helicase,0.11 µM
same,GI50,SW48 cells; [1],0.44 µM
"CCc1c(N2CCN(C(=O)c3ncccc3O)CC2)c(=O)n2nc(C3=CCOCC3)nc2n1CC(=O)Nc1ccc(C(F)(F)F)cc1F [Example 92, 2-(2-(3,6-dihydro-2H-pyran-4-yl)-5-ethyl-6-(4-(3-hydroxypicolinoyl)piperazin-1-yl)-7-oxo-[1,2,4]triazolo[1,5-a]pyrimidin-4(7H)-yl)-N-(2-fluoro-4-(trifluoromethyl)phenyl)acetamide]",GI50,DLD1-WRN-KO cells; Homo sapiens,> 10 µM
same,IC50,WRN helicase,0.05 µM
same,GI50,SW48 cells; [1],0.08 µM
"CCc1c(N2CCN(C(=O)c3ncccc3O)CC2)c(=O)n2nc(C3=CCOCC3)nc2n1CC(=O)Nc1ccc(C(F)(F)F)cc1Cl [Example 96, N-(2-chloro-4-(trifluoromethyl)phenyl)-2-(2-(3,6-dihydro-2H-pyran-4-yl)-5-ethyl-6-(4-(3-hydroxypicolinoyl)piperazin-1-yl)-7-oxo-[1,2,4]triazolo[1,5-a]pyrimidin-4(7H)-yl)acetamide]",GI50,DLD1-WRN-KO cells; Homo sapiens,> 10 µM
same,IC50,WRN helicase,0.06 µM
same,GI50,SW48 cells; [1],0.06 µM
"CCc1c(N2CCN(C(=O)c3ncccc3O)CC2)c(=O)n2nc(C3=CC[C@H](OC)CC3)nc2n1CC(=O)Nc1ccc(C(F)(F)F)nc1Cl (single isomer, unassigned) [Example 25b, ((R)—N-(2-chloro-6-(trifluoromethyl)pyridin-3-yl)-2-(5-ethyl-6-(4-(3-hydroxypicolinoyl)piperazin-1-yl)-2-(4-methoxycyclohex-1-en-1-yl)-7-oxo-[1,2,4]triazolo[1,5-a]pyrimidin-4(7H)-yl)acetamide) or ((S)—N-(2-chloro-6-(trifluoromethyl)pyridin-3-yl)-2-(5-ethyl-6-(4-(3-hydroxypicolinoyl)piperazin-1-yl)-2-(4-methoxycyclohex-1-en-1-yl)-7-oxo-[1,2,4]triazolo[1,5-a]pyrimidin-4(7H)-yl)acetamide)]",GI50,DLD1-WRN-KO cells; [2],> 10 µM
same,IC50,WRN helicase,0.1 µM
same,GI50,SW48 cells; [3],0.05 µM
"CCc1c(N2CCN(C(=O)c3ncnc(C)c3O)[C@@H](C)[C@H]2C)c(=O)n2nc(C3=CCOCC3)nc2n1CC(=O)Nc1ccc(C(F)(F)F)cc1Cl (single isomer, unassigned) [Example 121]",GI50,DLD1-WRN-KO cells; [2],> 10 µM
same,IC50,WRN helicase,0.86 µM
same,GI50,SW48 cells; [3],1.74 µM
"CCc1c(N2CCN(C(=O)c3ncncc3O)CC2)c(=O)n2nc(C3=CCOCC3)nc2n1CC(=O)Nc1ccc(C(F)(F)F)cc1Cl [Example 44, N-(2-chloro-4-(trifluoromethyl)phenyl)-2-(2-(3,6-dihydro-2H-pyran-4-yl)-5-ethyl-6-(4-(5-hydroxypyrimidine-4-carbonyl)piperazin-1-yl)-7-oxo-[1,2,4]triazolo[1,5-a]pyrimidin-4(7H)-yl)acetamide]",GI50,DLD1-WRN-KO cells; Homo sapiens,> 10 µM
same,IC50,WRN helicase,0.11 µM
same,GI50,SW48 cells; [1],0.08 µM
"CCc1c(N2CCN(C(=O)c3ncccc3O)CC2)c(=O)n2nc(N3C[C@@H](F)[C@@H](F)C3)nc2n1CC(=O)Nc1ccc(C(F)(F)F)cc1C [Example 23, 2-(2-((3R,4S)-3,4-difluoropyrrolidin-1-yl)-5-ethyl-6-(4-(3-hydroxypicolinoyl)piperazin-1-yl)-7-oxo-[1,2,4]triazolo[1,5-a]pyrimidin-4(7H)-yl)-N-(2-methyl-4-(trifluoromethyl)phenyl)acetamide]",GI50,DLD1-WRN-KO cells; Homo sapiens,> 10 µM
same,IC50,WRN helicase,0.26 µM
same,GI50,SW48 cells; [1],1.54 µM
"CCc1c(N2CCN(C(=O)c3ncnc(C)c3O)CC2)c(=O)n2nc(C3=CCOCC3)nc2n1CC(=O)Nc1ccc(Br)cc1Cl [Example 106, N-(4-bromo-2-chlorophenyl)-2-(2-(3,6-dihydro-2H-pyran-4-yl)-5-ethyl-6-(4-(5-hydroxy-6-methylpyrimidine-4-carbonyl)piperazin-1-yl)-7-oxo-[1,2,4]triazolo[1,5-a]pyrimidin-4(7H)-yl)acetamide]",GI50,DLD1-WRN-KO cells; Homo sapiens,> 10 µM
same,IC50,WRN helicase,0.06 µM
same,GI50,SW48 cells; [1],0.11 µM
"CCc1c(N2CCN(C(=O)c3ncccc3O)CC2)c(=O)n2nc(C3=CCNCC3)nc2n1CC(=O)Nc1ccc(C(F)(F)F)cc1C [Example 112, 2-(5-ethyl-6-(4-(3-hydroxypicolinoyl)piperazin-1-yl)-7-oxo-2-(1,2,3,6-tetrahydropyridin-4-yl)-[1,2,4]triazolo[1,5-a]pyrimidin-4(7H)-yl)-N-(2-methyl-4-(trifluoromethyl)phenyl)acetamide]",GI50,DLD1-WRN-KO cells; Homo sapiens,> 10 µM
same,IC50,WRN helicase,0.51 µM
same,GI50,SW48 cells; [1],7.94 µM
"CCc1c(N2CCN(C(=O)c3ncccc3O)CC2)c(=O)n2nc(C3=CCOCC3)nc2n1CC(=O)Nc1cc(F)c(C(F)(F)F)nc1C [Example 70, 2-(2-(3,6-dihydro-2H-pyran-4-yl)-5-ethyl-6-(4-(3-hydroxypicolinoyl)piperazin-1-yl)-7-oxo-[1,2,4]triazolo[1,5-a]pyrimidin-4(7H)-yl)-N-(5-fluoro-2-methyl-6-(trifluoromethyl)pyridin-3-yl)acetamide]",GI50,DLD1-WRN-KO cells; Homo sapiens,> 10 µM
same,IC50,WRN helicase,0.1 µM
same,GI50,SW48 cells; [1],0.22 µM
"CCc1c(N2CCN(C(=O)c3ncccc3O)CC2)c(=O)n2nc(C3=CNCCC3)nc2n1CC(=O)Nc1ccc(C(F)(F)F)cc1C [Example 109, 2-(5-ethyl-6-(4-(3-hydroxypicolinoyl)piperazin-1-yl)-7-oxo-2-(1,4,5,6-tetrahydropyridin-3-yl)-[1,2,4]triazolo[1,5-a]pyrimidin-4(7H)-yl)-N-(2-methyl-4-(trifluoromethyl)phenyl)acetamide]",GI50,DLD1-WRN-KO cells; Homo sapiens,> 10 µM
same,IC50,WRN helicase,1.18 µM
same,GI50,SW48 cells; [1],0.69 µM

# — patent US11878973B2, “Bicyclic compounds and their uses” (NOVARTIS AG, priority 2021, dated 2024)
